Results: US20140057915A1, “KINASE INHIBITORS” (TOPIVERT PHARMA LIMITED, priority 2012, published 2014)
Read-outs that look alike come from different tables or passages of the source.

Key:
[1] = target: B-Raf (V600e) (Homo sapiens, UniProt P15056, V600E); experiment: Enzyme binding assay (KINOMEscan)
Procedure: The kinase enzyme binding activities of compounds disclosed herein were determined using a proprietary assay which measures active site-directed competition binding to an immobilized ligand (Fabian, M. A. et al., Nature Biotechnol., 2005, 23:329-336). These assays were conducted by DiscoverX (formerly Ambit; San Diego, Calif.). The percentage inhibition produced by incubation with a test compound is calculated relative to the non-inhibited control.

[2] = target: CYP450 (Homo sapiens, UniProt P08684); experiment: Time-dependent inhibition of cytochromes (CYP450 TDI); format: in vitro ADME; conditions: CYP3A4 (midazolam probe), human hepatic microsomes
Sequence of CYP450 (Homo sapiens, UniProt P08684) (P08684 whole entry): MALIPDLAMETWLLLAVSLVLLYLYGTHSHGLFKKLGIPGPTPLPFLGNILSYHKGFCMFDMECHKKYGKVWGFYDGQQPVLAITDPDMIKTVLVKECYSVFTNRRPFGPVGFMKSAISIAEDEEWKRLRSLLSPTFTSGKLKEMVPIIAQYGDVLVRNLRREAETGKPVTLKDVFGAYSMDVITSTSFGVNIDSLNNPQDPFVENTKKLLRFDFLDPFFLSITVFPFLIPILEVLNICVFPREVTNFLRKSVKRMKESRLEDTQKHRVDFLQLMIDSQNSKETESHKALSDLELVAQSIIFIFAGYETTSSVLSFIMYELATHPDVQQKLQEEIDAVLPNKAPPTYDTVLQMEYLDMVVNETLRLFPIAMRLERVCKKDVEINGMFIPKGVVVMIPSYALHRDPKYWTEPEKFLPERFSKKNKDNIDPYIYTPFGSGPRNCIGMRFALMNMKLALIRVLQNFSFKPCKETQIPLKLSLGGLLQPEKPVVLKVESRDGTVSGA
Procedure: (§1) (ii) Time-Dependent Inhibition of Cytochromes
(§2) CYP450 time-dependent inhibition (TDI) assays were performed with test compound at six test concentrations, 0.062 μM to 15 μM (n=2). The test compounds was pre-incubated for 30 minutes with pooled human hepatic microsomes in 0.1 M Tris buffer, pH 7.4, at 37° C. in the presence of cofactor NADPH. A parallel series of incubations (n=2) were prepared with no pre-incubation. Probe substrates were then added (with additional cofactor) and further incubated for the times specified. Concentrations of probe substrates used in the incubations have been optimised to maintain first order reaction conditions.
(§3) Reactions were terminated with acetonitrile containing analytical internal standard (carbamazepine), samples then centrifuged to remove microsomal protein and analysed using optimised LC/MS-MS conditions. The MS data were normalised to internal standard and compared to the appropriate solvent controls to determine the amount of metabolite formed from the probe substrate relative to the “uninhibited” controls. The results are quoted as % inhibition. These values were then plotted using the sigmoidal dose response equation (shown below) and IC50's calculated.
(§4) Y=bottom+((top-bottom)/1+10̂((Log IC50−X)*Hill slope)) • X=Log concentration • Y=response
(§5) Variation in probe turnover between plate wells means that inhibition values recorded below 10-15% may not be significant.

[3] = target: CYP3A4 (Homo sapiens, UniProt P08684); experiment: as above; format: in vitro ADME; conditions: human, pooled human liver microsomes, pH 7.4, probe midazolam, CYP3A4 (midazolam probe), 15 μM, human hepatic microsomes, read-out: 15 μM % Inh
Sequence of CYP3A4 (P08684 whole entry): as above
Procedure: as §1, §2, §3, §4, §5

[4] = target: CYP2C9 (Homo sapiens, UniProt P11712); experiment: as above; format: in vitro ADME; conditions: human, pooled human liver microsomes, pH 7.4, probe diclofenac, CYP2C9 (diclofenac probe), 15 μM, human hepatic microsomes, read-out: 15 μM % Inh
Sequence of CYP2C9 (P11712 whole entry): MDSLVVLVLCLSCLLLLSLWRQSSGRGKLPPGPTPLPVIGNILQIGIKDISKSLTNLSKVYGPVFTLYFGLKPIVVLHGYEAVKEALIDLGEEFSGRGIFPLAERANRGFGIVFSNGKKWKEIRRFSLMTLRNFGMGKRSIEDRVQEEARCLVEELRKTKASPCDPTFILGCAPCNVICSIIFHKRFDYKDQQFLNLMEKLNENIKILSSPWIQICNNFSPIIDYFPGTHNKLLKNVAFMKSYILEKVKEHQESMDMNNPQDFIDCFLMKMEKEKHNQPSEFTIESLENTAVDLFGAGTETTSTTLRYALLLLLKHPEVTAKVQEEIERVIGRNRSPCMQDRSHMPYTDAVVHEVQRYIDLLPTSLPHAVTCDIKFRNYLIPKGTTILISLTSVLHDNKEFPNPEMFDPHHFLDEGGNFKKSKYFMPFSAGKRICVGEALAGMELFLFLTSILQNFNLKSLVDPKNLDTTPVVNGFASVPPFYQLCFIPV
Procedure: as §1, §2, §3, §4, §5

[5] = target: CYP450 (Homo sapiens, UniProt P11712); experiment: as above; format: in vitro ADME; conditions: CYP2C9 (diclofenac probe), human hepatic microsomes
Sequence of CYP450 (Homo sapiens, UniProt P11712) (P11712 whole entry): as above
Procedure: as §1, §2, §3, §4, §5

[6] = tested on: SCID mice; experiment: Adoptive transfer in mice; conditions: mouse
Procedure: (D) Adoptive Transfer in Mice
On Study day 0, female Balb/C mice are terminated and spleens obtained for CD45RB^high cell isolation (Using SCID IBD cell Separation protocol). Approximately 4×10^5 cells/mL CD45RB^high cells are then injected IP (100 μL/mouse) into female SCID animals. On study day 14, mice are weighed and randomized into treatment groups based on body weight. On Day 21, compounds are administered BID, via oral gavage, in a peanut oil vehicle at the dose levels outlined below and a dose volume of 5 mL/kg. Treatment continues until study day 42, at which point the animals are necropsied 4 hours after am administration. The colon length and weight is recorded and used as a secondary endpoint in the study as a measurement of colon oedema. The colon is then divided into six cross-sections, four of which are used for histopathology scoring (primary endpoint) and two are homogenised for cytokine analysis. Data shown is the % inhibition of the induction window between naïve animals and vehicle animals, where higher inhibition implies closer to the non-diseased, naïve, phenotype.

[7] = tested on: Salmonella typhimurium, strains TA98 and TA100; experiment: Mutagenicity assessment (bacterial reverse mutation screen); conditions: presence or absence of S-9 mix; up to 5000 μg/plate
Procedure: Mutagenicity Assessment (Bacterial Reverse Mutation Screen)
Studies were conducted by Sequani (Ledbury, Herefordshire, UK) to assess the compound of Example 77 in vitro for its ability to induce mutations in two histidine dependent auxotrophic mutants of Salmonella typhimurium, strains TA98 and TA100.
The mutation screen was conducted using the plate incorporation method and was performed in both the presence and absence of S-9 mix (a liver post-mitochondrial fraction derived from the livers of Aroclor 1254 treated rats). The bacteria were exposed to the compound of Example 77 dissolved in dimethylsulphoxide, which solvent was also used as the negative control. The dose levels used were 0.32, 1.6, 8, 40, 200, 1000 or 5000 μg/plate.

[8] = tested on: 71 receptors and 26 enzymes; experiment: Diversity Profile (Cerep); format: binding; conditions: 300 nM
Procedure: Studies were conducted by Cerep (Celle-Lévescault, France) to investigate the binding of the compound of Example 77 to a diverse selection of receptors and to investigate either the inhibition or activation of a selection of enzymes (the “Diversity Profile” comprising a total of 71 receptors and 26 enzymes).

[9] = target: p38 MAPKγ (Homo sapiens, UniProt P53778); experiment: Enzyme binding assay (Kinomescan); conditions: read-out: % Inhibition of kinase binding at 500 nM, p38 MAPKγ
Sequence of p38 MAPKγ (P53778 whole entry): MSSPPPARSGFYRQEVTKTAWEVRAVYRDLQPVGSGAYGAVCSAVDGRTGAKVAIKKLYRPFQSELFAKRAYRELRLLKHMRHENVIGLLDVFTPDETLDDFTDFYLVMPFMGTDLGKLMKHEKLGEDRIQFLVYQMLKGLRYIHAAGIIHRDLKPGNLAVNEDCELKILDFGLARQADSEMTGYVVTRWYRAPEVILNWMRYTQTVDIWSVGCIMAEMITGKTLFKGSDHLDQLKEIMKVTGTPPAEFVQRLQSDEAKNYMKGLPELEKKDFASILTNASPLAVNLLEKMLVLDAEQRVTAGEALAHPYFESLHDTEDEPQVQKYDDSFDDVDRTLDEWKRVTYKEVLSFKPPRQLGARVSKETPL
Procedure: Enzyme Binding Assays (Kinomescan)
(§6) These assays were conducted by DiscoverX (formerly Ambit; San Diego, Calif.). The percentage inhibition produced by incubation with a test compound is calculated relative to the non-inhibited control.

[10] = target: cSrc (Homo sapiens, UniProt P12931); experiment: Enzyme binding assay (Kinomescan); conditions: read-out: % Inhibition of kinase binding at 500 nM, cSrc
Sequence of cSrc (P12931 whole entry): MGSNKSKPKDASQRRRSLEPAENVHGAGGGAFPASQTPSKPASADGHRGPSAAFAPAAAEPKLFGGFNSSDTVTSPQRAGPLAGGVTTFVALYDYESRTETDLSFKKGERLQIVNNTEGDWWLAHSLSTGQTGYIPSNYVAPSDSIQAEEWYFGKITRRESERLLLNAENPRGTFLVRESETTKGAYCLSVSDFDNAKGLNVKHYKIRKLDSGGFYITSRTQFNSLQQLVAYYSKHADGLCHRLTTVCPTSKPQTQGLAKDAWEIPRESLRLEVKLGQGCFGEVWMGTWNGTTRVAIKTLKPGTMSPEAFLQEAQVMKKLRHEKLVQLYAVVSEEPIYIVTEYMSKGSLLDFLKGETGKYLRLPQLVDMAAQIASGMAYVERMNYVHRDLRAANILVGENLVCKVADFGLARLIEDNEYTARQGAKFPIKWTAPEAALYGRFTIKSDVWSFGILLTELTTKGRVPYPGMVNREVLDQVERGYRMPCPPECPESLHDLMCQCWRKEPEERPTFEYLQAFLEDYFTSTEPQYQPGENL
Procedure: as §6

[11] = target: GSK3α (Homo sapiens, UniProt P49840); experiment: Enzyme binding assay (Kinomescan); conditions: read-out: % Inhibition of kinase binding at 500 nM, GSK3α
Sequence of GSK3α (P49840 whole entry): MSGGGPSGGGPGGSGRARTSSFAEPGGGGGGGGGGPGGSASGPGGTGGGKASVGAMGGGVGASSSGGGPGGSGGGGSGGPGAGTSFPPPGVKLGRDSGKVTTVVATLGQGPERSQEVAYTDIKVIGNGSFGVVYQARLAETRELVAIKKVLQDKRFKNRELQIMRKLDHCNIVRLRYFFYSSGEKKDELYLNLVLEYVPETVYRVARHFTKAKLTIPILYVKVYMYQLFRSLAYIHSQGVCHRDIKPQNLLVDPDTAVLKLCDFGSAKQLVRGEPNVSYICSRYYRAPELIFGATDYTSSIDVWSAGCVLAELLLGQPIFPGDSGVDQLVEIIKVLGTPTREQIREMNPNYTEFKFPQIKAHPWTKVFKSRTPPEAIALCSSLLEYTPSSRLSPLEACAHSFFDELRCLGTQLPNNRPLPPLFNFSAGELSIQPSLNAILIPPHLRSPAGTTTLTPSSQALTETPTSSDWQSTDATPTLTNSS
Procedure: as §6

Sequence of B-Raf (V600e) (P15056 whole entry V600E): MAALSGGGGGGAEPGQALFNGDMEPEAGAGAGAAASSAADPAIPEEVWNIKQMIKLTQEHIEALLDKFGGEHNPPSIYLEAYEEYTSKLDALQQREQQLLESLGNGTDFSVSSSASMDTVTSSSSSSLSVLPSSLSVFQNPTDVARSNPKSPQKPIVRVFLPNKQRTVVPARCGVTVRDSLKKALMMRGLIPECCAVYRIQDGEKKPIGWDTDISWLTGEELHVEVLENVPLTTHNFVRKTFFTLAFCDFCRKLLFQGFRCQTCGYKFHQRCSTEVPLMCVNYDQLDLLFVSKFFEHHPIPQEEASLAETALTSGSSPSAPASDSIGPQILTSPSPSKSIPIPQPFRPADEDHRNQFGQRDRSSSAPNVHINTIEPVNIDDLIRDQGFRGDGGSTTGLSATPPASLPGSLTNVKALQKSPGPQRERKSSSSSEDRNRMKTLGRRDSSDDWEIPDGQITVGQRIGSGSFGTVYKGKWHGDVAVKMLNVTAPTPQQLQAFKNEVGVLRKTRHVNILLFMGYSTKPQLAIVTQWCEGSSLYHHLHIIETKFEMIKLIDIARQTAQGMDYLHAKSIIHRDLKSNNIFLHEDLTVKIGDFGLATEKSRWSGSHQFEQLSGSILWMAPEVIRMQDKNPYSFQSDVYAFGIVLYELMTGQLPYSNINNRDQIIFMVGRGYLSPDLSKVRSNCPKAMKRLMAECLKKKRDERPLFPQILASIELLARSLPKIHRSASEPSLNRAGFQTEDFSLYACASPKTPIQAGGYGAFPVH

| SMILES | effect on the binding of the kinase B-Raf (V600e) to its standard ligand [1] | IC50 ([2]; 0 min preincubation) [µM] | IC50 ([2]; 30 min preincubation) [µM] | inhibition at 15 µM ([3]; 0 min preincubation) [%] | inhibition at 15 µM ([3]; 30 min preincubation) [%] | inhibition at 15 µM ([4]; 0 min preincubation) [%] | inhibition at 15 µM ([4]; 30 min preincubation) [%] | IC50 ([5]; 0 min preincubation) [µM] | IC50 ([5]; 30 min preincubation) [µM] | activity in adoptive transfer in vivo model of colonic inflammation [6] | revertant colonies (mutagenic effects) [7] | inhibition of control specific binding in the receptor binding assays or enzyme assays [8] | inhibition at 0.5 µM [9] [%] | inhibition at 0.5 µM [10] [%] | inhibition at 0.5 µM [11] [%] |
| --- | --- | --- | --- | --- | --- | --- | --- | --- | --- | --- | --- | --- | --- | --- | --- |
| C#Cc1cc(Nc2nccc(Oc3ccc(NC(=O)Nc4cc(C(C)(C)C)nn4-c4ccc(OC)cc4)c4ccccc34)n2)cc(C(=O)NCCN2CCOCC2)c1 [Example 77, 3-((4-((4-(3-(3-(tert-Butyl)-1-(4-methoxyphenyl)-1H-pyrazol-5-yl)ureido)-naphthalen-1-yl)oxy)pyrimidin-2-yl)amino)-5-ethynyl-N-(2-morpholinoethyl)benzamide] | did not have any effect on the binding | > 15 | > 15 | 15 | 35 | -4 | 1 | > 15 | > 15 | significant activity | no dose-related or statistically significant increases in revertant colonies | less than 25% | – | – | – |
| COc1cc(Nc2nccc(Oc3ccc(NC(=O)Nc4cc(C(C)C)nn4-c4ccc(C)cc4)c4ccccc34)n2)cc(C(=O)NCCN2CCOCC2)c1 [Example 8, 3-((4-((4-(3-(3-Isopropyl-1-(p-tolyl)-1H-pyrazol-5-yl)ureido)naphthalen-1-yl)oxy)pyrimidin-2-yl)amino)-5-methoxy-N-(2-morpholinoethyl)benzamide] | – | – | – | – | – | – | – | – | – | – | – | – | 82 | 100 | 19 |
